Results from PMC5086919, “Antileukemic Scalarane Sesterterpenoids and Meroditerpenoid from Carteriospongia (Phyllospongia) sp., Induce Apoptosis via Dual Inhibitory Effects on Topoisomerase II and Hsp90” (Scientific Reports, 2016).
≈ marks a conversion by molar mass, not a printed value.

How the values were obtained:
T-47D cells = assay: MTT antiproliferative assay, breast cancer T-47D cells; settings: Homo sapiens, T47D, 72 h, read-out: IC50, cytotoxicity, Breast T-47D
From the text: (§3) Several cancer cell lines including leukemia K562, Molt 4, and HL 60 cells, prostate cancer LNCaP cells, colon cancer DLD-1 cells and breast cancer T-47D cells were used to evaluate the antiproliferative activity.
(§4) The cell lines were obtained from the American Type Culture Collection (ATCC, Manassas, VA, USA). […] Dimethyl sulfoxide (DMSO), 3-(4,5-dimethylthiazol-2-yl)-2,5-diphenyl-tetrazolium bromide (MTT) and all other chemicals were purchased from Sigma-Aldrich (St. Louis, MO, USA).

Molt 4 cells [1] = assay: ROS generation, carboxy-H2DCFDA flow cytometry; type: cell-based, human; settings: 0.0625 μg/mL
Experimental: (§1) Oxidative stress is manifested by ROS overexpression and cannot be balanced by the available antioxidant machinery. Compound 1 can damage the integrity of mitochondria, which are the major production sites of the superoxide anion, […]. The induction of the intracellular formation of ROS by 1 was determined with a carboxyl derivative of fluorescein, carboxy-H2DCFDA dye using flow cytometric analysis. […] In addition, ROS generation could induce ER stress leading to mitochondria-related apoptosis. To further investigate if ER stress is involved in the apoptotic effect induced by 1, Western blot analysis was used to determine the expression of ER stress-related proteins. […] Furthermore, the effect of 1 on the release of intracellular Ca^2+, was evaluated using fluorescent calcium indicator, Fluo 3. […] The induction of the typical executor caspases-3 and −7, as well as γH2AX, was also observed using Western blot analysis (Fig. 7D). To confirm the induction of DNA damage by 1 in Molt 4 cells, a comet assay under neutral electrophoresis condition was utilized. The effect of 1 (0.0625 μg/mL) at different time intervals (0, 3, 6 and 9 h) on the level of nuclear DNA integrity was determined. […] The DNA migration was represented by the induction of DSBs in a time-dependent increase, as indicated by the abnormal tails’ sizes in the comet assay.
(§2) These assays were performed as described previously. […] In brief, the treated cells were labeled with a specific fluorescent dye for 30 min. After labeling, cells were washed with PBS and resuspended in PBS at a concentration of 1 × 10^6 cells/mL before analysis via flow cytometry.

LNCaP cells = assay: MTT antiproliferative assay, prostate cancer LNCaP cells; settings: Homo sapiens, 72 h, read-out: IC50, cytotoxicity, Prostate LNCaP
From the text: as §3, §4

DLD-1 cells = assay: MTT antiproliferative assay, colon cancer DLD-1 cells; settings: Homo sapiens, DLD-1, 72 h, read-out: IC50, cytotoxicity, Colon DLD-1
From the text: as §3, §4

K562 cells = assay: MTT antiproliferative assay, leukemia K562 cells; settings: Homo sapiens, K562, 72 h, read-out: IC50, cytotoxicity, Leukemia K562
From the text: as §3, §4

Hsp70 in Molt 4 cells = assay: Immunofluorescence localization of Hsp70, confocal microscope; type: cell-based, human
Experimental: It was also reported that the induction of Hsp70 is the biomarker of Hsp90 with N-terminal inhibition. Aiming to understand the relation between Hsp90 function and the expression of Hsp70 and 90 clients, we treated Molt 4 cells with 1 (0.0625 μg/mL) for different time intervals. […] The majority of Hsps accumulate in subcellular localizations that determine whether a cell is going to die or differentiate. Erythroblasts with accumulated nuclear Hsp70 continued their differentiation process during the formation of red blood cells. Furthermore, we identified the localization of Hsp70 in response to 1 treatment using immunofluorescence by confocal microscope.
After treatment with the tested compound, cells were fixed with 4% paraformaldehyde in 50 mM HEPES buffer (pH 7.3) for 30 min, and permeabilized for 20 min with 0.2% Trition X-100 in PBS (pH 7.4). To prevent non-specific protein binding, cells were incubated with 5% BSA in PBS containing 0.05% Trition X-100 (T-PBS) for 1 h at room temperature. Cells were then incubated with the primary Hsp70 antibodies (1: 500) for 2 h and further with secondary antibodies (Alexa Fluor […] goat anti-mouse IgG (H + L) (Life Technologies, Carlsbad, CA, USA) diluted at 1:1000 for 1 h at room temperature. After washing with PBS, cells were observed under a FV1000 confocal laser scanning microscope (Olympus, Tokyo, Japan).

Molt 4 cells [2] = assay: Neutral comet assay for DNA double-strand breaks; type: cell-based, human; settings: 0.0625 μg/mL; 0, 3, 6 and 9 h; neutral electrophoresis
Experimental: Oxidative stress is manifested by ROS overexpression and cannot be balanced by the available antioxidant machinery. Compound 1 can damage the integrity of mitochondria, which are the major production sites of the superoxide anion, […]. The induction of the intracellular formation of ROS by 1 was determined with a carboxyl derivative of fluorescein, carboxy-H2DCFDA dye using flow cytometric analysis. […] In addition, ROS generation could induce ER stress leading to mitochondria-related apoptosis. To further investigate if ER stress is involved in the apoptotic effect induced by 1, Western blot analysis was used to determine the expression of ER stress-related proteins. […] Furthermore, the effect of 1 on the release of intracellular Ca^2+, was evaluated using fluorescent calcium indicator, Fluo 3. […] The effect of 1 (0.0625 μg/mL) at different time intervals (0, 3, 6 and 9 h) on the level of nuclear DNA integrity was determined. […]
The assay was carried out using a CometAssayTM Kit (Trevigen, Gaithersburg, MD, USA) following the manufacturer’s protocol for the neutral Comet assay. […] The fluorescence images were analyzed using the TriTek Comet Image program to circumscribe the “head” and the “tail” regions of each comet and the integrated fluorescence values of each defined area were recorded. The comet length was measured from the trailing edge of the nucleus to the leading edge of the tail. […]

U937 cells = assay: MTT antiproliferative assay, lymphoma U937 cells; settings: Homo sapiens, U-937, 72 h, read-out: IC50, cytotoxicity, Lymphoma U937
Molt 4 cells [3] = assay: Intracellular Ca2+ accumulation, Fluo 3 flow cytometry; type: cell-based, human; settings: 0.0625 μg/mL
Experimental: as §1, §2

CC[C@@]1(C)CCC[C@]2(C)[C@H]3C[C@@H](OC(=O)C[C@@H](C)O)[C@]4(C)[C@@H](C=O)C(C(C)=O)=CC[C@H]4[C@]3(C)CC[C@@H]12 (relative stereo) [Compound 1, 12β-(3′β-hydroxybutanoyloxy)-20,24-dimethyl-24-oxo-scalara-16-en-25-al]
IC50 (T-47D cells): 2.19 µg/mL (≈ 4.37 µM) | increase in ROS levels compared with MFI of control (Molt 4 cells [1]; 0.5 h): 2.09 fold | increase in ROS levels compared with MFI of control (Molt 4 cells [1]; 1 h): 1.51 fold | increase in ROS levels compared with MFI of control (Molt 4 cells [1]; 2 h): 1.06 fold | increase in ROS levels compared with MFI of control (Molt 4 cells [1]; 3 h): 1.01 fold | IC50 (LNCaP cells): 13.9 µg/mL (≈ 27.7 µM) | IC50 (DLD-1 cells): 2.33 µg/mL (≈ 4.65 µM) | IC50 (K562 cells): 0.01 µg/mL (≈ 0.02 µM) | localization of Hsp70 (Hsp70 in Molt 4 cells): predominantly accumulated in cytosol | DNA migration (DSBs), comet assay (Molt 4 cells [2]): increased the degree of DNA migration | IC50 (U937 cells): 0.01 µg/mL (≈ 0.02 µM) | increase in intracellular Ca2+ accumulation compared to MFI of control (Molt 4 cells [3]; 0.5 h): 1.03 folds | increase in intracellular Ca2+ accumulation compared to MFI of control (Molt 4 cells [3]; 1 h): 1.05 folds | increase in intracellular Ca2+ accumulation compared to MFI of control (Molt 4 cells [3]; 2 h): 1.06 folds | increase in intracellular Ca2+ accumulation compared to MFI of control (Molt 4 cells [3]; 3 h): 1.37 folds | increase in intracellular Ca2+ accumulation compared to MFI of control (Molt 4 cells [3]; 6 h): 2.41 folds | increase in intracellular Ca2+ accumulation compared to MFI of control (Molt 4 cells [3]; 18 h): 1.06 folds
